Reference: ChEMBL document CHEMBL1201862, “PubChem BioAssay data set” (2004)
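Tested at 5 concentrations; 48 h exposure; 96-well plates; endpoints linearly interpolated, else capped at highest concentration. Abbreviation: GI50, concentration required for 50% inhibition of growth.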 Activity calls are given as the source filed them. Cut-off read from the data, not from the text of the source: active = GI50 up to about 1.1 µM and inactive = higher. Where a SMILES comes first, the peptide text is derived from it. [ ]: non-standard residue; d: D form. The star is where a group is joined. Bn2Val = CC(C)[C@@H](C(=O)*)N(Cc1ccccc1)Cc1ccccc1; NHPiperonyl = c1cc2c(cc1CN*)OCO2; NMeV = CN[C@H](C(=O)O)C(C)C; dNMeA = CN[C@H](C)C(=O)O

Tests used:
Assay in all cases: DTP human tumour cell line panel, 48 h
[1] = test system: SNB-75
[2] = test system: ACHN
[3] = test system: 786-0
[4] = test system: KM12
[5] = test system: MCF7
[6] = test system: OVCAR-3
[7] = test system: OVCAR-4
[8] = test system: TK-10
[9] = test system: A549
[10] = test system: A498
[11] = test system: CCRF-CEM
[12] = test system: MDA-N
[13] = test system: NCI/ADR-RES
[14] = test system: NCI-H226
[15] = test system: BT-549
[16] = test system: UACC-257
[17] = test system: UACC-62
[18] = test system: SR
[19] = test system: HOP-92

CC(C)=CC(C)C(C(O)CCC1(c2ccoc2)OCCO1)S(=O)(=O)c1ccccc1 (stereo not drawn)
GI50 [1]: > 100 µM (inactive) | GI50 [2]: > 100 µM (inactive) | GI50 [3]: > 100 µM (inactive) | GI50 [4]: > 100 µM (inactive) | GI50 [5]: > 100 µM (inactive) | GI50 [6]: > 100 µM (inactive) | GI50 [7]: > 100 µM (inactive) | GI50 [8]: > 100 µM (inactive) | GI50 [9]: > 100 µM (inactive) | GI50 [10]: > 100 µM (inactive) | GI50 [11]: > 100 µM (inactive) | GI50 [12]: > 100 µM (inactive) | GI50 [13]: 91.6 µM (inactive) | GI50 [14]: > 100 µM (inactive) | GI50 [15]: > 100 µM (inactive) | GI50 [16]: > 100 µM (inactive)

N=c1oc2ccccc2cc1-c1nc2ccccc2[nH]1
GI50 [1]: 41.1 µM (inactive) | GI50 [2]: 16.9 µM (inactive) | GI50 [3]: 15.4 µM (inactive) | GI50 [4]: 30.8 µM (inactive) | GI50 [5]: 19.9 µM (inactive) | GI50 [7]: > 100 µM (inactive) | GI50 [8]: 17.7 µM (inactive) | GI50 [9]: 74.1 µM (inactive) | GI50 [17]: 41.4 µM (inactive) | GI50 [18]: 19.2 µM (inactive) | GI50 [19]: 2.23 µM (inactive) | GI50 [11]: 14 µM (inactive) | GI50 [12]: 17.3 µM (inactive) | GI50 [13]: 22.3 µM (inactive) | GI50 [14]: > 100 µM (inactive) | GI50 [15]: 27.5 µM (inactive) | GI50 [16]: > 100 µM (inactive)

COc1cccc(N2C(=O)C3c4[nH]c5ccccc5c4C4c5ccccc5CCC4C3C2=O)c1 (stereo not drawn)
GI50 [1]: 2.7 µM (inactive) | GI50 [2]: > 10 µM (inactive) | GI50 [3]: 2.9 µM (inactive) | GI50 [4]: > 10 µM (inactive) | GI50 [5]: > 10 µM (inactive) | GI50 [6]: 5.5 µM (inactive) | GI50 [7]: 2.75 µM (inactive) | GI50 [8]: > 10 µM (inactive) | GI50 [9]: 6.12 µM (inactive) | GI50 [17]: > 10 µM (inactive) | GI50 [10]: 2.77 µM (inactive) | GI50 [19]: 6.15 µM (inactive) | GI50 [11]: > 10 µM (inactive) | GI50 [12]: > 8.28 µM (inactive) | GI50 [13]: 4.76 µM (inactive) | GI50 [14]: > 4.37 µM (inactive) | GI50 [15]: 4.91 µM (inactive)

O=C1CC(c2ccccc2)C2(C(=O)NC(=S)NC2=O)C(c2ccccc2)C1 (stereo not drawn)
GI50 [1]: > 75 µM (inactive) | GI50 [2]: > 75 µM (inactive) | GI50 [3]: > 75 µM (inactive) | GI50 [4]: > 75 µM (inactive) | GI50 [5]: > 75 µM (inactive) | GI50 [6]: > 75 µM (inactive) | GI50 [7]: > 75 µM (inactive) | GI50 [8]: > 75 µM (inactive) | GI50 [17]: > 75 µM (inactive) | GI50 [18]: 71 µM (inactive) | GI50 [19]: 13.3 µM (inactive) | GI50 [11]: > 75 µM (inactive) | GI50 [12]: > 75 µM (inactive) | GI50 [13]: > 75 µM (inactive) | GI50 [14]: > 75 µM (inactive) | GI50 [15]: > 75 µM (inactive) | GI50 [16]: > 75 µM (inactive)

CC(C)[C@H](NC(=O)[C@H](C(C)C)N(Cc1ccccc1)Cc1ccccc1)C(=O)N(C)[C@H](C(=O)N1CCC[C@H]1C(=O)N(C)[C@H](C)C(=O)NCc1ccc2c(c1)OCO2)C(C)C (Bn2Val-V[NMeV]P[dNMeA]-NHPiperonyl)
GI50 [2]: 8.11 µM (inactive) | GI50 [3]: 13.6 µM (inactive) | GI50 [4]: 4.83 µM (inactive) | GI50 [5]: 2.25 µM (inactive) | GI50 [6]: 5.01 µM (inactive) | GI50 [7]: 5.85 µM (inactive) | GI50 [8]: 18.3 µM (inactive) | GI50 [9]: 15.6 µM (inactive) | GI50 [17]: 13 µM (inactive) | GI50 [11]: 2.56 µM (inactive) | GI50 [12]: 12.1 µM (inactive) | GI50 [13]: 2.91 µM (inactive) | GI50 [14]: 16.8 µM (inactive) | GI50 [15]: 13.2 µM (inactive) | GI50 [16]: 5.56 µM (inactive)

O=c1[nH]/c(=C/c2ccc(OCc3ccccc3)cn2)c(=O)[nH]/c1=C/c1ccccc1
GI50 [1]: 0.0643 µM (active) | GI50 [2]: 0.296 µM (active) | GI50 [3]: 0.128 µM (active) | GI50 [4]: 0.118 µM (active) | GI50 [5]: 0.425 µM (active) | GI50 [6]: 0.114 µM (active) | GI50 [7]: 0.465 µM (active) | GI50 [8]: 0.164 µM (active) | GI50 [9]: 0.594 µM (active) | GI50 [17]: 0.191 µM (active) | GI50 [18]: 0.289 µM (active) | GI50 [10]: 0.743 µM (active) | GI50 [19]: 14.3 µM (inactive) | GI50 [11]: 0.126 µM (active) | GI50 [12]: 0.0402 µM (active) | GI50 [13]: 0.0794 µM (active) | GI50 [15]: 0.787 µM (active)

O=[N+]([O-])C1(C2([N+](=O)[O-])CCCC2)CCCC1
GI50 [1]: 61 µM (inactive) | GI50 [3]: > 100 µM (inactive) | GI50 [4]: > 100 µM (inactive) | GI50 [5]: > 100 µM (inactive) | GI50 [6]: > 100 µM (inactive) | GI50 [7]: > 100 µM (inactive) | GI50 [8]: > 100 µM (inactive) | GI50 [9]: > 100 µM (inactive) | GI50 [17]: > 100 µM (inactive) | GI50 [18]: > 100 µM (inactive) | GI50 [10]: > 100 µM (inactive) | GI50 [11]: > 100 µM (inactive) | GI50 [12]: > 100 µM (inactive) | GI50 [13]: > 100 µM (inactive) | GI50 [14]: > 100 µM (inactive) | GI50 [15]: > 100 µM (inactive) | GI50 [16]: > 100 µM (inactive)

CC(=O)OC1=NN=C2COC(c3ccccc3OC(C)=O)=NN2C1
GI50 [1]: 15.8 µM (inactive) | GI50 [2]: > 50 µM (inactive) | GI50 [3]: 24.4 µM (inactive) | GI50 [4]: 31.5 µM (inactive) | GI50 [5]: > 50 µM (inactive) | GI50 [6]: > 50 µM (inactive) | GI50 [7]: > 50 µM (inactive) | GI50 [8]: > 50 µM (inactive) | GI50 [9]: > 50 µM (inactive) | GI50 [17]: 28.1 µM (inactive) | GI50 [18]: > 50 µM (inactive) | GI50 [19]: > 50 µM (inactive) | GI50 [11]: > 50 µM (inactive) | GI50 [12]: > 50 µM (inactive) | GI50 [13]: > 50 µM (inactive) | GI50 [15]: > 50 µM (inactive) | GI50 [16]: 20.4 µM (inactive)
